# Experiments:
# [1] = test system: human cervical tumor cell line HeLa (ATCC CCL-2); assay: SAC-Formation - Paclitaxel-Induced Assay; assay type: cell-based; details: 24 h, HeLa cells, paclitaxel 0.05 μM, test range 0.005 μM-20 μM, read-out: IC50 [mol/l] SAC-Formation - Paclitaxel-Induced Assay
# Summary of the method: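 Read-out is high-content imaging of anti-phospho-H3 Ser10 (mitosis) and Hoechst 33342 (DNA, cell number), with decreased mitotic fraction marking checkpoint breakthrough. Compounds (0.005–20 μM) and 0.05 μM paclitaxel co-added to overnight-plated HeLa for 24 h at 37° C; four-parameter Hill fit.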
# [2] = test system: human cervical tumor cell line HeLa (ATCC CCL-2); assay: SAC-Formation - Nocodazole-Induced Assay; assay type: cell-based; details: 24 h, HeLa cells, nocodazole 0.1 μg/ml together with test compound, decrease of mitotic cells (phospho-histone H3 Ser10)
# Summary of the method: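 Loss of phospho-histone H3 Ser10-positive cells, counted against Hoechst-stained nuclei by high-content imaging, marked mitotic breakthrough. Compounds (0.005–20 μM, 0.5% DMSO) were co-dosed with 0.1 μg/ml nocodazole onto HeLa cells for 24 h at 37 °C. Curves were fitted with a four-parameter Hill equation.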
SMILES,"IC50 ([1]; Homo sapiens, HeLa)","IC50 ([2]; Homo sapiens, HeLa)",IC50 [1],IC50 [2]
"Cc1nsc(Nc2cnc(C(F)(F)F)cn2)c1C(=O)Nc1ccc(OC2CCN(CC(F)F)CC2)c(F)c1 [Example 164, N-(4-{[1-(2,2-difluoroethyl)piperidin-4-yl]oxy}-3-fluorophenyl)-3-methyl-5-{[5-(trifluoromethyl)pyrazin-2-yl]amino}-1,2-thiazole-4-carboxamide]",140 nM,84 nM,,
"Cc1nsc(Nc2cnc(C(F)(F)F)cn2)c1C(=O)Nc1ccc(C(=O)NC2CCN(CC(F)(F)F)CC2)cc1 [Example 165, 3-methyl-N-(4-{[1-(2,2,2-trifluoroethyl)piperidin-4-yl]carbamoyl}phenyl)-5-{[5-(trifluoromethyl)pyrazin-2-yl]amino}-1,2-thiazole-4-carboxamide]",590 nM,240 nM,,
"CC(=O)N(C)CCOc1ccc(NC(=O)c2c(C)nsc2Nc2nc3c(C(F)(F)F)cccc3s2)cn1 [Example 112, N-(6-{2-[Acetyl(methyl)amino]-ethoxy}pyridin-3-yl)-3-methyl-5-{[4-(trifluoromethyl)-1,3-benzothiazol-2-yl]amino}-1,2-thiazole-4-carboxamide]",800 nM,230 nM,,
"CC(=O)Nc1cc(NC(=O)c2c(C)nsc2Nc2ccc(C#N)cn2)ccc1F [Example 152, N-(3-acetamido-4-fluorophenyl)-5-[(5-cyanopyridin-2-yl)amino]-3-methyl-1,2-thiazole-4-carboxamide]",8800 nM,8400 nM,,
"Cc1nsc(Nc2cnc(C(F)(F)F)cn2)c1C(=O)Nc1ccc(OC2CCN(CC(F)(F)F)CC2)nc1 [Example 9, -Methyl-N-(6-{[1-(2,2,2-trifluoroethyl)piperidin-4-yl]oxy}pyridin-3-yl)-5-{[5-(trifluoromethyl)pyrazin-2-yl]amino}-1,2-thiazole-4-carboxamide]",360 nM,220 nM,,
"Cc1nsc(Nc2cnc3ccccc3n2)c1C(=O)Nc1ccc(C(=O)NC2CN(C(=O)OC(C)(C)C)CC(F)(F)C2)cc1 (stereo not shown) [Example 158, tert-butyl 3,3-difluoro-5-{[4-({[3-methyl-5-(quinoxalin-2-ylamino)-1,2-thiazol-4-yl]carbonyl}amino)benzoyl]amino} piperidine-1-carboxylate]",2800 nM,240 nM,,
"Cc1nsc(Nc2cnc(C(F)(F)F)cn2)c1C(=O)Nc1ccc(O[C@@H]2CCN(CC(F)F)C[C@@H]2F)nc1 [Example 137, N-(6-{[(3S,4R)-1-(2,2-difluoroethyl)-3-fluoropiperidin-4-yl]oxy}pyridin-3-yl)-3-methyl-5-{[5-(trifluoromethyl)pyrazin-2-yl]amino}-1,2-thiazole-4-carboxamide]",32 nM,34 nM,,
"Cc1nsc(Nc2cnc3ccccc3n2)c1C(=O)Nc1ccc(Oc2cccc(C(F)(F)F)c2)nc1 [Example 117, 3-Methyl-5-(quinoxalin-2-ylamino)-N-{6-[3-(trifluoromethyl)phenoxy]pyridin-3-yl}-1,2-thiazole-4-carboxamide]",1500 nM,190 nM,,
"Cc1nsc(Nc2cnc(C(F)(F)F)cn2)c1C(=O)Nc1ccc(OC2CCN(CC(F)F)CC2)nc1 [Example 8, N-(6-{[1-(2,2-Difluoroethyl)piperidin-4-yl]oxy}pyridin-3-yl)-3-methyl-5-{[5-(trifluoromethyl)pyrazin-2-yl]amino}-1,2-thiazole-4-carboxamide]",1500 nM,1500 nM,,
"CCNS(=O)(=O)c1ccc(NC(=O)c2c(C)nsc2Nc2cnc3ccccc3n2)cc1 [Example 116, N-[4-(Ethylsulfamoyl)phenyl]-3-methyl-5-(quinoxalin-2-ylamino)-1,2-thiazole-4-carboxamide]",1500 nM,810 nM,,
"Cc1nsc(Nc2cnc(C(F)(F)F)cn2)c1C(=O)Nc1ccc(OC2CCNCC2)nc1 [Example 6, 3-Methyl-N-[6-(piperidin-4-yloxy)pyridin-3-yl]-5-{[5-(trifluoromethyl)pyrazin-2-yl]amino}-1,2-thiazole-4-carboxamide]",19000 nM,14000 nM,,
"CCCN1CC[C@H](Oc2ccc(NC(=O)c3c(C)nsc3Nc3cnc(C(F)(F)F)cn3)cn2)[C@H](F)C1 [Example 147, N-(6-{[(3R,4S)-3-fluoro-1-propylpiperidin-4-yl]oxy}pyridin-3-yl)-3-methyl-5-{[5-(trifluoromethyl)pyrazin-2-yl]amino}-1,2-thiazole-4-carboxamide]",30 nM,5.9 nM,,
"Cc1nsc(Nc2cnc(C(F)(F)F)cn2)c1C(=O)Nc1ccc(OC[C@@H]2CCN(CC(F)(F)F)C2)nc1 [Example 128, 3-Methyl-N-(6-{[(3R)-1-(2,2,2-trifluoroethyl)pyrrolidin-3-yl]methoxy}pyridin-3-yl)-5-{[5-(trifluoromethyl)pyrazin-2-yl]amino}-1,2-thiazole-4-carboxamide]",70 nM,15 nM,,
"Cc1nsc(Nc2cnc(C(F)(F)F)cn2)c1C(=O)Nc1ccc(C(=O)OC(C)(C)C)cc1 [Example 96, tert-Butyl 4-{[(3-methyl-5-{[5-(trifluoromethyl)pyrazin-2-yl]amino}-1,2-thiazol-4-yl)carbonyl]amino}benzoate]",39 nM,1.8 nM,,
"Cc1nsc(Nc2ccc(C#N)cn2)c1C(=O)Nc1ccc(NC2CCCN(C(=O)OC(C)(C)C)C2)nc1 (stereo not shown) [Example 171, tert-butyt 3-({5-[({5-[(5-cyanopyridin-2-yl)amino]-3-methyl-1,2-thiazol-4-yl}carbonyl)amino]pyridin-2-yl}amino)piperidine-1-carboxylate]",4000 nM,71 nM,,
"Cc1nsc(Nc2cc(C#N)ccn2)c1C(=O)Nc1ccc(Oc2cccnc2)nc1 [Example 119, 5-[(4-Cyanopyridin-2-yl)amino]-3-methyl-N-[6-(pyridin-3-yloxy)pyridin-3-yl]-1,2-thiazole-4-carboxamide]",20000 nM,4500 nM,,
"Cc1nsc(Nc2cnc(C(F)(F)F)cn2)c1C(=O)Nc1ccc(C(=O)NCCN2CCCC(F)(F)C2)cc1 [Example 153, N-(4-{[2-(3,3-difluoropiperidin-1-yl)ethyl]carbamoyl}phenyl)-3-methyl-5-{[5-(trifluoromethyl)pyrazin-2-yl]amino}-1,2-thiazole-4-carboxamide]",370 nM,65 nM,,
"Cc1nsc(Nc2cnc3ccccc3n2)c1C(=O)Nc1ccc(N2CCOCC2)nc1 [Example 169, 3-methyl-N-[6-(morpholin-4-yl)pyridin-3-yl]-5-(quinoxalin-2-ylamino)-1,2-thiazole-4-carboxamide]",14000 nM,2500 nM,,
"Cc1nsc(Nc2cncc(C(F)(F)F)n2)c1C(=O)Nc1ccc(OCC2CCCN(C(=O)OC(C)(C)C)C2)nc1 (stereo not shown) [Example 166, tert-butyl 3-{[(5-{[(3-methyl-5-{[6-(trifluoromethyl)pyrazin-2-yl]amino}-1,2-thiazol-4-yl)carbonyl]amino}pyridin-2-yl)oxy]methyl}piperidine-1-carboxylate]",170 nM,52 nM,,
"Cc1nsc(Nc2cnc3ccccc3n2)c1C(=O)Nc1cccc(C(=O)N[C@H](C(=O)O)[C@@H](C)OC(C)(C)C)c1 [Example 104, O-tert-Butyl-N-[3-({[3-methyl-5-(quinoxalin-2-ylamino)-1,2-thiazol-4-yl]-carbonyl}amino)benzoyl]threonine]",3200 nM,1800 nM,,
"Cc1nsc(Nc2cncc(C(F)(F)F)n2)c1C(=O)Nc1ccc(C(=O)NC2CCN(CC(F)(F)F)CC2)cc1 [Example 167, 3-methyl-N-(4-{[1-(2,2,2-trifluoroethyl)piperidin-4-yl]carbamoyl}phenyl)-5-{[6-(trifluoromethyl)pyrazin-2-yl]amino}-1,2-thiazole-4-carboxamide]",340 nM,91 nM,,
"COC(=O)CNC(=O)c1cccc(NC(=O)c2c(C)nsc2Nc2cnc3ccccc3n2)c1 [Example 100, Methyl N-[3-({[3-methyl-5-(quinoxalin-2-ylamino)-1,2-thiazol-4-yl]carbonyl}amino)-benzoyl]glycinate]",20000 nM,1500 nM,,
"Cc1nsc(Nc2cnc(C(F)(F)F)cn2)c1C(=O)Nc1ccc(O[C@@H]2CCN(CC(F)(F)F)C2)nc1 [Example 421, 3-Methyl-N-(6-{[(3R)-1-(2,2,2-trifluoroethyl)pyrrolidin-3-yl]oxy}pyridin-3-yl)-5-{[5-(trifluoromethyl)pyrazin-2-yl]amino}-1,2-thiazole-4-carboxamide]",,,330 nM,340 nM
"Cc1nsc(Nc2ccc(C#N)cn2)c1C(=O)Nc1ccc(C(=O)OC(C)(C)C)cc1 [Example 98, tert-Butyl 4-[({5-[(5-cyanopyridin-2-yl)amino]-3-methyl-1,2-thiazol-4-yl}carbonyl)-amino]benzoate]",7.9 nM,3.8 nM,,
"Cc1nsc(Nc2cncc(C(F)(F)F)n2)c1C(=O)Nc1ccc(OCC2CCN(C(=O)OC(C)(C)C)C2)nc1 (stereo not shown) [Example 110, tert-Butyl 3-{[(5-{[(3-methyl-5-{[6-(trifluoromethyl)pyrazin-2-yl]amino}-1,2-thiazol-4-yl)carbonyl]amino}pyridin-2-yl)oxy]methyl}pyrrolidine-1-carboxylate]",150 nM,35 nM,,
"Cc1nsc(Nc2cnc3ccccc3n2)c1C(=O)Nc1ccc(S(C)(=O)=O)cc1 [Example 115, 3-Methyl-N-[4-(methylsulfonyl)phenyl]-5-(quinoxalin-2-ylamino)-1,2-thiazole-4-carboxamide]",3700 nM,1200 nM,,
